Measured values published in patent publication US20250084036A1, “COMPOUND, ALDEHYDE DEHYDROGENASE 2 ACTIVATOR, PHARMACEUTICAL COMPOSITION, AND THERAPEUTIC AND/OR PROPHYLACTIC DRUG” (Alchemedicine, Inc., priority 2022, published 2025).

Key:
[1] = Test Example 2: Metabolic stability with mouse hepatic microsomes; type: in vitro ADME; conditions: after 30 minutes, 37° C., NADPH; further: tested at 0.99 µM
Method: Metabolic stability in mouse hepatic microsomes was evaluated with the following method.
• (1) Mouse hepatic microsomes: 20 mg/mL • (2) Test compound: 1.1 mM DMSO solution • (3) Potassium phosphate buffer solution: 66.7 mM (pH 7.4) • (4) NADPH solution: 10 mM in potassium phosphate buffer solution • (5) Quenching solution: 0.5% formic acid-acetonitrile solution with warfarin as internal standard substance
Into a propylene tube, 971.5 μL of the potassium phosphate buffer solution and 27.5 μL of the mouse hepatic microsomes were put, and suspended. Thereto, 1 μL of a test compound was added, and 180 μL was taken from this mixture and transferred into another tube. The mixture was preincubated at 37° C. for 5 minutes, and 20 μL of the NADPH solution (for the case with an incubation time of 30 minutes) or 20 μL of the potassium phosphate buffer solution (for the case with an incubation time of 0 minutes) was then added thereto. After incubation, 200 μL of the quenching solution was added to terminate the reaction. Subsequently, centrifugation was performed at 3220×g for 20 minutes, and the concentration of the unchanged form of the test compound in 200 μL of the supernatant was measured with LC-MS/MS. On the basis of the peak area obtained for the unchanged form, the residual rate (%) of the unchanged form was calculated as that for the case with an incubation time of 0 minutes was assumed as 100%.

[2] = target: T1, human recombinant ALDH2 enzyme (Homo sapiens, UniProt P05091); experiment: Test Example 1-2: ALDH2 activation effect (acetaldehyde oxidation rate, PicoProbe kit); type: biochemical; conditions: ALDH2 1 μg/mL, 60 min measurement
T1 construct: purchased Abcam ab87415
T1 sequence (P05091 18-517): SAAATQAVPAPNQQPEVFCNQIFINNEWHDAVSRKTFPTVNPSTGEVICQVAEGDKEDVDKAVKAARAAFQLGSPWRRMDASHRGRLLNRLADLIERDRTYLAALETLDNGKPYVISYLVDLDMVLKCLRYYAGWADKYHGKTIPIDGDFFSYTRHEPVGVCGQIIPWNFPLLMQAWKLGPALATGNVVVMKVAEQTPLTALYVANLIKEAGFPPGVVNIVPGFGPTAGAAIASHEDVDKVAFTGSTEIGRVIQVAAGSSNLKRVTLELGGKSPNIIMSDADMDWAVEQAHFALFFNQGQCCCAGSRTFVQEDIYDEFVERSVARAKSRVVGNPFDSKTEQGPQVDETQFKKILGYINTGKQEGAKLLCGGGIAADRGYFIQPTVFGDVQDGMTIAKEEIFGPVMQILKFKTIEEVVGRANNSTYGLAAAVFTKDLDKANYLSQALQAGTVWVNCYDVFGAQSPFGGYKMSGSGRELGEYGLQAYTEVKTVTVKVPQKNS
Method: (§1) The activation effect of each test compound on the acetaldehyde oxidation rate of ALDH2 was measured with the following method. A test was conducted by using a commercially available PicoProbe™ Aldehyde dehydrogenase Activity Assay Kit (manufactured by Abcam) with reference to an instruction attached to the product under the following conditions. To each well of a 384-well plate, the following (1) to (3) were sequentially added with a pipette: • (1) 10 μL of solution obtained by dissolving and diluting a human recombinant ALDH2 enzyme (manufactured by Abcam, product number: ab87415) with ALDH assay Buffer (final concentration: 1 μg/mL); • (2) 10 μL of 30 μM or 90 μM test compound solution (with 3% DMSO) prepared by using ALDH assay Buffer; and • (3) 10 μL of Reaction mix composed with ratio of 7.3 μL of ALDH assay Buffer, 0.6 μL of PicoProbe, 0.6 μL of Substrate Mix, and 1.5 μL of Acetaldehyde.
(§2) Before addition of (3), incubation was performed at room temperature for 5 minutes. After addition of (3), fluorescence intensity was measured at room temperature every 2.5 minutes over a period of 60 minutes by using an EnVision (manufactured by PerkinElmer Inc.) to determine the oxidation rate. Wavelengths of 535 nm and 587 nm were used for fluorescence intensities of excitation and emission, respectively.

[3] = Test Example 3: Metabolic stability with human hepatic microsomes; type: in vitro ADME; conditions: human hepatic microsomes 0.1 mg protein/mL, 0.1 μmol/L test compound, after 30 minutes, 37° C.
Method: For the compounds of Examples 1 to 9, which had been confirmed to have stability in the mouse hepatic microsome test, metabolic stability with human hepatic microsomes was measured. The specific method is as follows. • (1) Fifty microliter-portions were taken from 0.2 μmol/L test compound diluted with β-NADPH solution. • (2) Fifty microliters of 0.2 mg protein/mL human hepatic microsome solution was added to each (except for a sample with a reaction time of 0 minutes). • (3) Incubation was performed with shaking at 37° C. for 30 minutes (concentration in reaction sample: 0.1 μmol/L test compound, 0.1 mg protein/mL human hepatic microsome) • (4) After incubation, 400 μL of methanol was added to terminate the reaction. • (5) To the sample with a reaction time of 0 minutes, 50 μL of 0.2 mg protein/mL hepatic microsome solution was added. • (6) Each of the samples from (4) and (5) was left to stand at −20° C. for 30 minutes or longer, and then centrifuged at 4° C. and 3,000 rpm for approximately 10 minutes. • (7) The supernatant was subjected to measurement with LC/MS/MS, and, on the basis of the peak area obtained for the unchanged form, the residual rate (%) of the unchanged form was calculated as that for the case with an incubation time of 0 minutes was assumed as 100%.

[4] = target: T1, human recombinant ALDH2 enzyme; experiment: Test Example 1-1: ALDH2 activation effect (acetaldehyde oxidation rate, PicoProbe kit); type: biochemical; conditions: ALDH2 2 μg/mL, 180 min measurement
Method: as §1, with “by BioVision Inc.)” for “by Abcam)”, “concentration: 2” for “concentration: 1”, “of […]” for “of 7.3”, “PicoProbe, 0.3” for “PicoProbe, 0.6”
as §2, with “180” for “60”, “EnSight” for “EnVision”

Residual rate (%) of unchanged form [1] [%]	acetaldehyde oxidation rate (no test compound = 100%) ([2]; test compound 10 μM) [%]	acetaldehyde oxidation rate (no test compound = 100%) ([2]; test compound 30 μM) [%]	Residual rate (%) of unchanged form [3] [%]	acetaldehyde oxidation rate (no test compound = 100%) ([4]; test compound 10 μM) [%]	acetaldehyde oxidation rate (no test compound = 100%) ([4]; test compound 30 μM) [%]	Compound
95	122	170	92			COc1ncc(CNC(=O)c2cc(-c3ncccc3[C@@H](C)O)ccc2F)cc1F (single isomer, unassigned) [Example 5, 2-fluoro-N-((5-fluoro-6-methoxypyridin-3-yl)methyl)-5-(3-(1-hydroxyethyl)pyridin-2-yl)benzamide]
89			>99	150	180	COc1ccc(CNC(=O)c2cc(-c3ncccc3CO)ccc2F)cn1 [Example 2, 2-Fluoro-5-(3-(hydroxymethyl)pyridin-2-yl)-N-((6-methoxypyridin-3-yl)methyl)benzamide]
92	182	283	93			O=C(NCc1cnc(OC2CC2)c(F)c1)c1cc(-c2ncccc2CO)ccc1F [Example 9, N-((6-Cyclopropoxy-5-fluoropyridin-3-yl)methyl)-2-fluoro-5-(3-(hydroxymethyl)pyridin-2-yl)benzamide]
90	154	224	>99			CC(C)Oc1ncc(CNC(=O)c2cc(-c3ncccc3CO)ccc2F)cc1F [Example 8, 2-Fluoro-N-((5-fluoro-6-isopropoxypyridin-3-yl)methyl)-5-(3-(hydroxymethyl)pyridin-2-yl)benzamide]
96	331	415	89			CCOc1ncc(CNC(=O)c2cc(-c3ncccc3CO)ccc2F)cc1F [Example 7, N-((6-Ethoxy-5-fluoropyridin-3-yl)methyl)-2-fluoro-5-(3-(hydroxymethyl)pyridin-2-yl)benzamide]
93	133	155	>99			COc1ncc(CNC(=O)c2cc(-c3ncccc3[C@@H](C)O)ccc2F)cc1F (single isomer, unassigned) [Example 4, 2-fluoro-N-((5-fluoro-6-methoxypyridin-3-yl)methyl)-5-(3-(1-hydroxyethyl)pyridin-2-yl)benzamide]

Continued, compound first:

Compound	Residual rate (%) of unchanged form [1] [%]	acetaldehyde oxidation rate (no test compound = 100%) ([2]; test compound 10 μM) [%]	acetaldehyde oxidation rate (no test compound = 100%) ([2]; test compound 30 μM) [%]	Residual rate (%) of unchanged form [3] [%]	acetaldehyde oxidation rate (no test compound = 100%) ([4]; test compound 10 μM) [%]	acetaldehyde oxidation rate (no test compound = 100%) ([4]; test compound 30 μM) [%]
COCc1ccc(CNC(=O)c2c(F)cccc2F)cc1F [Comparative Example 6, reference compound]	1					
COCc1ccc(CNC(=O)c2c(Cl)cccc2Br)cc1F [Comparative Example 4, reference compound]	<1					
COc1ccc(CNC(=O)c2cc(-c3ncccc3CO)ccc2OCC2CC2)cc1F [Comparative Example 2, reference compound]	6					
COCc1ccc(CNC(=O)c2c(Cl)cccc2Cl)cc1F [Comparative Example 3, reference compound]	1					
O=C(NCc1ccc(OC(F)F)nc1)c1cc(-c2ncccc2CO)ccc1F [Example 6, N-((6-(Difluoromethoxy)pyridin-3-yl)methyl)-2-fluoro-5-(3-(hydroxymethyl)pyridin-2-yl)benzamide]	>99	125	139	47		
O=C(NCc1ccc2c(c1)OCO2)c1c(Cl)cccc1Cl [Comparative Example 1, reference compound]	<1	220	275		199	225
COCc1ccc(CNC(=O)c2cc(-c3ncccc3CO)ccc2F)cn1 [Example 1, 2-Fluoro-5-(3-(hydroxymethyl)pyridin-2-yl)-N-((6-(methoxymethyl)pyridin-3-yl)methyl)benzamide]	91			96	123	130
COCc1ccc(CNC(=O)c2c(F)cccc2Cl)cc1F [Comparative Example 5, reference compound]	<1					
